Laboratory results published in ChEMBL document CHEMBL1201862, “PubChem BioAssay data set” (2004).
Activity calls are given as the source filed them. For most assays here, no stated cut-off is given here; in the data, actives have a measured EC50 and inactives only a lower limit.

Columns and labels:
[1] = target: Luciferin 4-monooxygenase (Photinus pyralis, UniProt P08659); assay: inhibition of purified Photinus pyralis luciferase – biochemical, luminescence, dose response (AID 1891)
[2] = Luminescence Cell-Based Dose Confirmation HTS to Identify Inhibitors of Platelet Dense Granule Release. [Related pubchem assays: 1663 (Primary HTS), 1678 (Summary of Project)]; type: functional
[3] = target: T1, Corticotropin-releasing factor receptor 2/Corticotropin-releasing factor-binding protein (Homo sapiens, UniProt P24387+Q13324); assay: activators of CRF receptor 2 with binding protein – uHTS hits, confirmation (AID 602473); type: functional; settings: read-out: EC50_Mean
T1 sequence (Q13324 whole entry): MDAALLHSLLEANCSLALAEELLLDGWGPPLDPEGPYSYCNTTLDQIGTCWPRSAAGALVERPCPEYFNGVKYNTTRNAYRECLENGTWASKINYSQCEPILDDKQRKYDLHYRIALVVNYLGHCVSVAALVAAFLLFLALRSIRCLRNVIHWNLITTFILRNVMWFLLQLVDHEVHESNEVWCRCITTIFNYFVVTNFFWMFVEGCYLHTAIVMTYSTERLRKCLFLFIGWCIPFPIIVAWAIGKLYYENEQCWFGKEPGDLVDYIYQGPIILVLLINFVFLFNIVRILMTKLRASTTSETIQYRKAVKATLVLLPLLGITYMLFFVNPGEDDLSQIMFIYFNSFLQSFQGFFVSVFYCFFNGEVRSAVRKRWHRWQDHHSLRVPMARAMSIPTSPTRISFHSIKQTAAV
T1 sequence (P24387 whole entry): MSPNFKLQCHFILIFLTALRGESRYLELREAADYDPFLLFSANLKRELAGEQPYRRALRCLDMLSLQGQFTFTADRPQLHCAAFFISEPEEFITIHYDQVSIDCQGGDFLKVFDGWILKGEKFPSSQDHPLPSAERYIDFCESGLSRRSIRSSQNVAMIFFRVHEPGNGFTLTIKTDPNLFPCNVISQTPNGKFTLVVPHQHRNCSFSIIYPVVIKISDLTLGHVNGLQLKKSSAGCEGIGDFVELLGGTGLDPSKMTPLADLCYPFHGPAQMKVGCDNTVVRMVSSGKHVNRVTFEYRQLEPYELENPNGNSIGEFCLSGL

Cytochrome P450 2D6 = Cytochrome P450 2D6 (Homo sapiens, UniProt P10635);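 further: CYP2D6 member of a cytochrome P450 panel assay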
[4] = viability of uninfected HEp-2 cells – cell-based, HTS, cytotoxicity control for RSV inhibitor project, dose response (AID 2410); type: functional; settings: human respiratory syncytial virus
[5] = target: T1, Corticotropin-releasing factor receptor 2/Corticotropin-releasing factor-binding protein; assay: Dose Response confirmation of uHTS hits for small molecule antagonists of the CRF-binding protein and CRF-R2 receptor complex.; type: functional; settings: read-out: IC50_Mean
[6] = system: Streptococcus sp. 'group A'; assay: Streptococcus pyogenes SK(-)GAS viability under kanamycin – luminescence, BacTiterGlo, confirmation, counter-screen for streptokinase expression inhibitor project, dose response (AID 1900); type: functional, organism-based
Streptococcus = assay: GAS UMAA2166 growth inhibition – luminescence, BacTiterGlo, counter-screen for streptokinase expression inhibitor project, dose response (AID 1915); type: functional, organism-based;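 further: potency for reduction of bacterial viability or growth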
[7] = Trypanosoma cruzi growth suppression in host cells – NIH3T3 host cells, beta-gal luminescence, confirmation (AID 2044); type: functional, cell-based;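 further: intracellular parasites grown in NIH/3T3 mouse fibroblasts as host cells; luminescent beta-galactosidase reporter signal from transgenic T. cruzi replicating inside host cells; inhibitors lower the luminescence signal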
[8] = NIH3T3 cell viability loss – ATP luminescence, mouse fibroblasts, counter-screen, dose response (AID 2010); type: functional, cell-based;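 further: cells exposed to compound for about 90 hours before reading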
Cytochrome P450 2C9 = Cytochrome P450 2C9 (Homo sapiens, UniProt P11712)
Sequence of Cytochrome P450 2C9 (P11712 whole entry): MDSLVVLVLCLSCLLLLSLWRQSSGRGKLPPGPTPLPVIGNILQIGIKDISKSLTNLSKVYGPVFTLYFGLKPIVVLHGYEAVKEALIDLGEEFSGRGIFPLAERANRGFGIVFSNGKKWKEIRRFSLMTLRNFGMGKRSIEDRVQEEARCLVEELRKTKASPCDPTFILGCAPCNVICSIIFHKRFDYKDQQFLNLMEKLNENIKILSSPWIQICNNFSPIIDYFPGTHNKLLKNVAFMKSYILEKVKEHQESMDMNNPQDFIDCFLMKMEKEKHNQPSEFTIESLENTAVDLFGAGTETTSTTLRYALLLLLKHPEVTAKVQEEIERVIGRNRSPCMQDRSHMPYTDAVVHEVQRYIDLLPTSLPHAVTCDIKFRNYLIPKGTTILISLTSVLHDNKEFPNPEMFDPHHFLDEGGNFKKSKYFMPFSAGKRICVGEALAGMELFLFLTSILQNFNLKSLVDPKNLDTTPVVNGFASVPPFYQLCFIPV

Sequence of Luciferin 4-monooxygenase (P08659 whole entry): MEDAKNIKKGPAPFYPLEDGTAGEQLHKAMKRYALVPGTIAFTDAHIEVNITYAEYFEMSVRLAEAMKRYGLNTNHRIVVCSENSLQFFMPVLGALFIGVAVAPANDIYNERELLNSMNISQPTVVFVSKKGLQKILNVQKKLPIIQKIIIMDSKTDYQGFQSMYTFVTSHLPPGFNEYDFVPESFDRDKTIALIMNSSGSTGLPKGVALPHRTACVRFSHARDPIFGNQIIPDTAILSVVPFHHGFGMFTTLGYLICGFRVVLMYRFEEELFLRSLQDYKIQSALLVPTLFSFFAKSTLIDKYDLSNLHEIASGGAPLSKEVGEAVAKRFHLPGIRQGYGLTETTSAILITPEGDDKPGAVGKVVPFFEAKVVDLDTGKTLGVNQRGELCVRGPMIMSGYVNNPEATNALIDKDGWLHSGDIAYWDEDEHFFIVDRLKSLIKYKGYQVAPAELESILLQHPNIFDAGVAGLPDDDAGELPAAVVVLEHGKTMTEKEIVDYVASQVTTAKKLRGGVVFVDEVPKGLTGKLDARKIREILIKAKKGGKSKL
Sequence of Cytochrome P450 2D6 (P10635 whole entry): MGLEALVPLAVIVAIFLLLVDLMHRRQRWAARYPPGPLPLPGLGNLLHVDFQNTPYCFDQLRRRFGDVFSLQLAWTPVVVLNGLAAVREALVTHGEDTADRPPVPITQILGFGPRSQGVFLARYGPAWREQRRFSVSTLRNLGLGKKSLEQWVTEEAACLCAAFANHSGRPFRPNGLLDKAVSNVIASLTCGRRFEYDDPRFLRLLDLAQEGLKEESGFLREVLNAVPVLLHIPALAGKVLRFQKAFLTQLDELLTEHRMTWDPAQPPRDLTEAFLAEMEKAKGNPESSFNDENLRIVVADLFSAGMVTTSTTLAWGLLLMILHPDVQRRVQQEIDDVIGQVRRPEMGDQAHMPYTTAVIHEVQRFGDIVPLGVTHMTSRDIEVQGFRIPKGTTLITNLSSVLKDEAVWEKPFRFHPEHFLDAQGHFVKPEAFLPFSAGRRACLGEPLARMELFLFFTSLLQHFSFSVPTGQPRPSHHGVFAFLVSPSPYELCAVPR

In the case of `O=C(CN1C(=O)CCC1=O)Nc1nc(-c2cccs2)cs1`, the EC50 [1] is reported as > 112 µM (not active) and the EC50 [2] is reported as > 112 µM (not active).

In the case of `CCNC(=O)C1OC(n2cnc3c(N)ncnc32)C(O)C1O` (stereo unspecified), the EC50 [2] is reported as < 0.088 µM (active).

In the case of `COc1ccc(N2C(=O)c3cccc4cccc(c34)C2=O)cc1`, the EC50 [3] is reported as > 53 µM (inactive).

For `Cn1nc(C(F)(F)F)c(C(=O)Nc2ccc(F)cc2F)c1Sc1ccc(C(F)(F)F)cc1`, the AC50 (Cytochrome P450 2D6) was 14.1 µM (inconclusive).

With `COc1cccc(C(=O)Nc2cccc(-c3ccccc3)c2)c1` the CC50 [4] was 29.6 µM (active).

In the case of `CC(C(=O)NCCN1CCOCC1)(c1ccccc1)c1ccccc1`, the IC50 [5] is reported as > 47.1 µM (inactive) and the EC50 [3] is reported as > 53 µM (inactive).

For `O=C(CCOc1ccccc1)Nc1ccc([N+](=O)[O-])cc1`, the IC50 [5] was > 47.1 µM (inactive) and the EC50 [3] was > 53 µM (inactive).

For `C=CCc1cc(/C=C2\C(=N)N3N=C(CC(=O)N4CCOCC4)SC3=NC2=O)cc(OC)c1O`, the EC50 [3] was 6.76 µM (active).

With `CSCCC(NC(=O)c1cccc(C)c1)C(=O)NNC(=O)c1cccs1` (stereo unspecified) the IC50 [5] was > 47.1 µM (inactive) and the EC50 [3] was > 53 µM (inactive).

For `O=C(COc1ccccc1)NC1C(=O)N2C(C(=O)O)=C(Cl)CSC12` (stereo unspecified), the EC50 [6] was 0.301 µM (active) and the EC50 (Streptococcus) was 0.372 µM (active).

With `CC(NC(=O)c1ccccc1Br)c1ccc2c(c1)CCCC2` (stereo unspecified) the CC50 [4] was 21.5 µM (active).

With `CC(C)OC(=O)C1=C2SCC(=O)N2C(N)=C(C#N)C1` the AC50 (Cytochrome P450 2D6) was 25.1 µM (inconclusive).

In the case of `Cc1nn(Cc2cccc(C(=O)Nc3ccn(Cc4c(F)c(F)cc(F)c4F)n3)c2)c(C)c1[N+](=O)[O-]`, the CC50 [4] is reported as 23.8 µM (active), the EC50 [7] is reported as 0.882 µM (active) and the EC50 [8] is reported as > 60 µM (not active).

For `O=C(NCc1ccccc1Cl)C(=O)c1c[nH]c2ccccc12`, the CC50 [4] was > 6.25 µM (active).

For `CS(=O)(=O)Nc1cccc(-c2ccc3ncnc(NCc4cccs4)c3c2)c1`, the AC50 (Cytochrome P450 2C9) was 0.501 µM (inconclusive).

For `Cn1c(=O)oc2cc(S(=O)(=O)N3CCN(c4ccc(F)cc4)CC3)ccc21`, the EC50 [1] was > 112 µM (not active) and the EC50 [2] was > 112 µM (not active).

In the case of `O=C(Oc1ccccc1)N1CCC[C@@]2(CCN(c3ccccn3)C2)C1`, the AC50 (Cytochrome P450 2C9) is reported as 39.8 µM (inconclusive).

For `Clc1cccc(/C=N\C=N/c2cccc(Cl)c2)c1`, the AC50 (Cytochrome P450 2D6) was 25.1 µM (inconclusive).

With `Cc1ccc(/C(C#N)=C\c2cn(C)c3ccccc23)cc1` the CC50 [4] was 33.5 µM (active).

For `COC(=O)C(O)(c1ccc(NC(=S)NC(=O)c2ccc(Cl)cc2Cl)cc1)C(F)(F)F` (stereo unspecified), the CC50 [4] was > 50 µM (active).

In the case of `Cc1ccc(SC(C)C(=O)Nc2ccccc2C(=O)N2CCOCC2)cc1` (stereo unspecified), the EC50 [1] is reported as > 112 µM (not active) and the EC50 [2] is reported as > 112 µM (not active).

In the case of `COc1ccc(-c2cc(-c3ccccc3)nc(Cl)n2)cc1OC`, the CC50 [4] is reported as 19.1 µM (active).

For `CC(=O)N1CCC[C@@]2(CCN(c3ncccn3)C2)C1`, the AC50 (Cytochrome P450 2D6) was 15.8 µM (inconclusive).

For `Cc1c(C(=O)N2CCCC2)sc(NC(=O)c2ccc(Cl)cc2)c1C#N`, the EC50 [1] was > 112 µM (not active) and the EC50 [2] was > 112 µM (not active).

With `O=C(c1ccncc1)N1CCC2(CCCN(c3ccc(-c4ccccc4)cc3)C2)CC1` the AC50 (Cytochrome P450 2D6) was 12.6 µM (inconclusive).

With `FC(F)(F)c1ccccc1-c1nc(Nc2ccncc2)c2ccccc2n1` the AC50 (Cytochrome P450 2C9) was 0.794 µM (inconclusive).

For `Cn1c(=O)c(-c2cccc(Cl)c2)nc2cncnc21`, the AC50 (Cytochrome P450 2C9) was 39.8 µM (inconclusive).

With `NC(=O)NC(=O)COC(=O)c1ccc2c(c1)C(=O)N(Cc1ccccc1)C2=O` the EC50 [1] was > 112 µM (not active) and the EC50 [2] was > 112 µM (not active).

For `CC(C)S(=O)(=O)c1csc(C(=O)Nc2ccc(F)cc2)c1N`, the EC50 [1] was 2.33 µM (active) and the EC50 [2] was < 0.701 µM (active).
